Measured values from patent US20230167073A1 (Teijin Pharma Limited, priority 2020, published 2023).

The molecules below were run against T1, Human TRPC6 (Homo sapiens, UniProt Q9Y210) (assay: Evaluation of TRPC6 channel inhibitory activity (1), FLIPR Calcium 5 Assay Kit, OAG stimulation (Compound Nos. 1-1293)). Settings: Human TRPC6 stably-expressing cells, OAG 30 μM, FLIPR Calcium 5 Assay Kit; read-out: Inhibitory activity (pIC50 class) (converted).
T1 construct: expressed in transfected cells
T1 sequence (Q9Y210 1-931): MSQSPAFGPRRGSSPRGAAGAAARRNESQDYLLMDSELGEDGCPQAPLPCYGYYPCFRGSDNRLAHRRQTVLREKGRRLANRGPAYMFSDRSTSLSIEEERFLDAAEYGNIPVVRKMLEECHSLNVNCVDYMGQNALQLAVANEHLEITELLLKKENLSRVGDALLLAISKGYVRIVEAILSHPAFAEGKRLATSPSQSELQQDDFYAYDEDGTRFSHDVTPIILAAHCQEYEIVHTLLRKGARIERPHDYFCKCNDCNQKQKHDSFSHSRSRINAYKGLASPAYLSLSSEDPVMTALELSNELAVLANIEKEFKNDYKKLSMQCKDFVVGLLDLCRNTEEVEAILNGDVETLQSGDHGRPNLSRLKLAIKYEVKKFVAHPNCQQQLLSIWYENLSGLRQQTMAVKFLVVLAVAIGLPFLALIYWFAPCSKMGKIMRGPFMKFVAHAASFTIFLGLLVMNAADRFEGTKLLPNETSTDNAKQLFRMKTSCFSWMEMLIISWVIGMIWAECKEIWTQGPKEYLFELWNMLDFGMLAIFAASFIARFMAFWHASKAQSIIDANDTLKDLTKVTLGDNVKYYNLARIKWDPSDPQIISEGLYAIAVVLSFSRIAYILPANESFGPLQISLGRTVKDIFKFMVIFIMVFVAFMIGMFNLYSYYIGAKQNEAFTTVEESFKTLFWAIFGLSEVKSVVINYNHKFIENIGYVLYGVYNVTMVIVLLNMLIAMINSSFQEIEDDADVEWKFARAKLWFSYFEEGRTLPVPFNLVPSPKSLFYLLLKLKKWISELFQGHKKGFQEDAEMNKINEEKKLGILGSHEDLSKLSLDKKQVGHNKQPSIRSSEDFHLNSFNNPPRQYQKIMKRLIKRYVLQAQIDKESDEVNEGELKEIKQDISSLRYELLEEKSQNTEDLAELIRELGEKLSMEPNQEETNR
Format: cell-based
Experimental: Evaluation of TRPC6 Channel Inhibitory Activity (1) (Compound Nos. 1-1293)
In order to investigate TRPC6 channel inhibitory activity of the compounds, evaluation was conducted using FLIPR® Calcium 5 Assay Kit (Molecular Devices) in accordance with the following procedure. Human TRPC6 stably-expressing cells were seeded in a 384-well black clear bottom plate at a density of 5×10^3/well and cultured in an incubator at 37° C. 5% CO2 for 24 hours. Thereafter, 25 μL of a Non Wash Dye Solution, prepared using Component A, 20 mM HEPES-HBSS and 250 mM probenecid, all of which are included in the kit, was added to each well, and the plate was incubated for 30 minutes. A volume of 12.5 μL of a compound solution was added into each well while the fluorescence was measured with FLIPR tetra. After 20 minutes, 12.5 μL of a 1-oleoyl-2-acetyl glycerol (OAG) solution was added at a final concentration of 30 μM. The difference between the minimum fluorescence intensity before the addition of the compound and the maximum fluorescence intensity after the addition of OAG was defined as a signal. An inhibition rate was calculated, assuming the average signal of wells without the compound as the inhibition rate of 0% and the average signal of wells without the compound and OAG as the inhibition rate of 100%. The calculated inhibition rate was analyzed by a four-parameter logistic regression to quantify the inhibition rate in the logarithm of the inverse of the effective concentration which gives a 50% inhibition rate (pIC50). The intensity was expressed by the following symbols (+, ++, +++).
`Cn1nc(-c2cccc(F)c2)cc1Oc1cc(C#N)ccc1-c1ncc([C@H](O)CN)cn1` (stereo in doubt) [compound 404, 4-[5-(2-amino-1-hydroxyethyl)pyrimidin-2-yl]-3-[5-(3-fluorophenyl)-2-methylpyrazol-3 yl]oxybenzonitrile] was tested, and the IC50 was < 0.01 µM. In the case of `Cn1nc(C2CC2)cc1Oc1cc(C#N)ccc1-c1cccn2c([C@@H](N)CCO)nnc12` (stereo in doubt) [compound 533, 4-[3-(1-amino-3-hydroxypropyl)-[1,2,4]triazolo[4,3-a]pyridin-8-yl]-3-(5-cyclopropyl-2-methylpyrazol-3-yl)oxybenzonitrile], the IC50 is reported as > 1 µM. `Cn1nc(C2CC2)cc1Oc1cc(C#N)ccc1-c1cccn2c(C[C@H](N)C(=O)O)nnc12` (stereo in doubt) [compound 581, 2-amino-3-[8-[4-cyano-2-(5-cyclopropyl-2-methylpyrazol-3-yl)oxyphenyl]-[1,2,4]triazolo[4,3-a]pyridin-3-yl]propanoic acid] was tested, and the IC50 was > 1 µM. Molecule `N#Cc1ccc(-c2ccc(CN)cc2)c(Nc2cc(-c3ccccc3)ncn2)c1` [Compound 1, 4-[4-(aminomethyl)phenyl]-3-[(6-phenylpyrimidin-4-yl)amino]benzonitrile] has an IC50 of 0.01 to 1 µM. With `Cc1nc(Nc2cc(C#N)ccc2-c2ccc(CCN)cc2)cc(N2CCOCC2)n1` [Compound 2, 4-[4-(2-aminoethyl)phenyl]-3-[(2-methyl-6-morpholin-4-ylpyrimidin-4-yl)amino]benzonitrile] the IC50 was < 0.01 µM. `Cc1nc(Nc2cc(C#N)ccc2-c2ccc3c(c2)COC32CNC2)cc(N2CCOCC2)n1` [Compound 3, 3-[(2-methyl-6-morpholin-4-ylpyrimidin-4-yl)amino]-4-spiro[3H-2-benzofuran-1,3′-azetidin]-5-ylbenzonitrile] gave an IC50 of 0.01 to 1 µM. For `Cc1nc(Nc2cc(C#N)ccc2-c2ccc(C(=O)CN)cc2)cc(N2CCOCC2)n1` [Compound 4, 4-[4-(2-Aminoacetyl)phenyl]-3-[(2-methyl-6-morpholin-4-ylpyrimidin-4-yl)amino]benzonitrile], the IC50 was > 1 µM. For `Cc1nc(N2CCOCC2)cc(N(C)c2cc(C#N)ccc2-c2ccc3c(c2)COC32CN(C)C2)n1` [Compound 5, 3-[methyl-(2-methyl-6-morpholin-4-ylpyrimidin-4-yl)amino]-4-(1′-methylspiro[3H-2-benzofuran-1,3′-azetidin]-5-yl)benzonitrile], the IC50 was > 1 µM. With `CN(c1cc(C#N)ccc1-c1ncc(CCN)cn1)c1cc(-c2ccccc2)nn1C` [Compound 6, 4-[5-(2-Aminoethyl)pyrimidin-2-yl]-3-[methyl-(2-methyl-5-phenylpyrazol-3-yl)amino]benzonitrile] the IC50 was < 0.01 µM. In the case of `Cc1nc(Oc2cc(C#N)ccc2-c2ccc(CCN)cc2)cc(N2CCOCC2)n1` [Compound 7, 4-[4-(2-Aminoethyl)phenyl]-3-(2-methyl-6-morpholin-4-ylpyrimidin-4-yl)oxybenzonitrile], the IC50 is reported as < 0.01 µM. In the case of `Cc1nc(Oc2cc(C#N)ccc2-c2ccc(C(=O)CN)cc2)cc(N2CCOCC2)n1` [Compound 8, 4-[4-(2-aminoacetyl)phenyl]-3-(2-methyl-6-morpholin-4-ylpyrimidin-4-yl)oxybenzonitrile], the IC50 is reported as > 1 µM. In the case of `Cc1nc(Oc2cc(C#N)ccc2-c2ccc(C(O)CN)cc2)cc(N2CCOCC2)n1` (stereo not shown) [Compound 9, 4-[4-(2-amino-1-hydroxyethyl)phenyl]-3-(2-methyl-6-morpholin-4-ylpyrimidin-4-yl)oxybenzonitrile], the IC50 is reported as < 0.01 µM. For `Cc1nc(Oc2cc(C#N)ccc2-c2ccc(N3CCN(C)CC3)cc2)cc(N2CCOCC2)n1` [Compound 10, 3-(2-methyl-6-morpholin-4-ylpyrimidin-4-yl)oxy-4-[4-(4-methylpiperazin-1-yl)phenyl]benzonitrile], the IC50 was > 1 µM. `COC(CN)c1ccc(-c2ccc(C#N)cc2Oc2cc(N3CCOCC3)nc(C)n2)cc1` (stereo not shown) [Compound 11, 4-[4-(2-Amino-1-methoxyethyl)phenyl]-3-(2-methyl-6-morpholin-4-ylpyrimidin-4-yl)oxybenzonitrile] was tested, and the IC50 was < 0.01 µM. In the case of `Cc1nc(Oc2cc(C#N)ccc2-c2ccc(N3CCNCC3)cc2)cc(N2CCOCC2)n1` [Compound 12, 3-(2-methyl-6-morpholin-4-ylpyrimidin-4-yl)oxy-4-(4-piperazin-1-ylphenyl)benzonitrile], the IC50 is reported as > 1 µM. `Cc1nc(Oc2cc(C#N)ccc2-c2ccc(C(CN)Oc3ccccc3)cc2)cc(N2CCOCC2)n1` (stereo not shown) [Compound 13, 4-[4-(2-Amino-1-phenoxyethyl)phenyl]-3-(2-methyl-6-morpholin-4-ylpyrimidin-4-yl)oxybenzonitrile] was tested, and the IC50 was 0.01 to 1 µM. `Cc1nc(Oc2cc(C#N)ccc2-c2cnc(N)nc2)cc(N2CCOCC2)n1` [Compound 14, 4-(2-aminopyrimidin-5-yl)-3-(2-methyl-6-morpholin-4-ylpyrimidin-4-yl)oxybenzonitrile] was tested, and the IC50 was > 1 µM. Molecule `CCN(CC)c1cc(Oc2cc(C#N)ccc2-c2ccc(CCN)cc2)nc(C)n1` [Compound 15, 4-[4-(2-aminoethyl)phenyl]-3-[6-(diethylamino)-2-methylpyrimidin-4-yl]oxybenzonitrile] has an IC50 of 0.01 to 1 µM. For `CCCN(CCC)c1cc(Oc2cc(C#N)ccc2-c2ccc(CCN)cc2)nc(C)n1` [Compound 16, 4-[4-(2-aminoethyl)phenyl]-3-[6-(dipropylamino)-2-methylpyrimidin-4-yl]oxybenzonitrile], the IC50 was 0.01 to 1 µM. With `Cc1nc(Oc2cc(C#N)ccc2-c2ccc(CCN)cc2)cc(N2CCCCC2)n1` [Compound 17, 4-[4-(2-Aminoethyl)phenyl]-3-(2-methyl-6-piperidin-1-ylpyrimidin-4-yl)oxybenzonitrile] the IC50 was < 0.01 µM. `Cc1nc(Oc2cc(C#N)ccc2-c2ccc(CCN)cc2)cc(N2CCC(F)(F)CC2)n1` [Compound 18, 4-[4-(2-aminoethyl)phenyl]-3-[6-(4,4-difluoropiperidin-1-yl)-2-methylpyrimidin-4-yl]oxybenzonitrile] showed an IC50 of 0.01 to 1 µM. In the case of `Cc1nc(Oc2cc(C#N)ccc2-c2ccc(CCN)cc2)cc(N2CCCC(F)(F)C2)n1` [Compound 19, 4-[4-(2-aminoethyl)phenyl]-3-[6-(3,3-difluoropiperidin-1-yl)-2-methylpyrimidin-4-yl]oxybenzonitrile], the IC50 is reported as 0.01 to 1 µM. `Cc1nc(Oc2cc(C#N)ccc2-c2ccc(CCN)cc2)cc(-c2ccnn2C)n1` [Compound 20, 4-[4-(2-aminoethyl)phenyl]-3-[2-methyl-6-(2-methylpyrazol-3-yl)pyrimidin-4-yl]oxybenzonitrile] showed an IC50 of 0.01 to 1 µM. For `Cc1nc(Oc2cc(C#N)ccc2-c2ccc(CCN)cc2)cc(-c2ccccc2C#N)n1` [Compound 21, 4-[4-(2-Aminoethyl)phenyl]-3-[6-(2-cyanophenyl)-2-methylpyrimidin-4-yl]oxybenzonitrile], the IC50 was < 0.01 µM. With `Cc1nc(Oc2cc(C#N)ccc2-c2ccc(CCN)cc2)cc(-c2ccccc2O)n1` [Compound 22, 4-[4-(2-aminoethyl)phenyl]-3-[6-(2-hydroxyphenyl)-2-methylpyrimidin-4-yl]oxybenzonitrile] the IC50 was 0.01 to 1 µM. `Cc1nc(Oc2cc(C#N)ccc2-c2ccc(CCN)cc2)cc(-c2ccccc2C(F)(F)F)n1` [Compound 23, 4-[4-(2-aminoethyl)phenyl]-3-[2-methyl-6-[2-(trifluoromethyl)phenyl]pyrimidin-4-yl]oxybenzonitrile] showed an IC50 of 0.01 to 1 µM. For `Cc1nc(Oc2cc(C#N)ccc2-c2ccc(CCN)cc2)cc(N2CC(F)(F)C2)n1` [Compound 24, 4-[4-(2-aminoethyl)phenyl]-3-[6-(3,3-difluoroazetidin-1-yl)-2-methylpyrimidin-4-yl]oxybenzonitrile], the IC50 was 0.01 to 1 µM. With `Cc1nc(Oc2cc(C#N)ccc2-c2ccc(CCN)cc2)cc(N2CCCC2)n1` [Compound 25, 4-[4-(2-aminoethyl)phenyl]-3-(2-methyl-6-pyrrolidin-1-ylpyrimidin-4-yl)oxybenzonitrile] the IC50 was < 0.01 µM.
